# According to patent publication US20250041309A1 (ZHENAO JINYINHUA PHARMACEUTICAL, priority 2021, published 2025):
# Structures can show the parent of a compound that is named as a salt.
# What was measured:
# [1] = pH measurement of Aildenafil salts dissolved in water; assay type: physicochemical; details: for 2 mg/ml pH value: 2 mg/ml in water; for 10 mg/ml pH value: 10 mg/ml in water
# [2] = Sterilization stability test of aqueous solutions (121° C., 30 minutes, HPLC relevant substances); details: 0.5 mg/ml aqueous solution; for Conclusion (sterilization stability) / Relevant substances after sterilization: sterilized at 121° C. for 30 minutes
# Method: They were sterilized in a 121° C. sterilizer for 30 minutes, and sampled before and after sterilization. The relevant substances were measured according to the following method:
# Relevant substances: taking the samples and dissolving it in the mobile phase to prepare a solution containing 0.5 mg per 1 ml, which was used as the test solution; using octadecylsilane bonded silica gel as the filler, phosphate buffer (800 ml of water, 7 ml of triethylamine added, pH adjusted to 3.0 with phosphoric acid, diluted to 1000 ml with water)-methanol acetonitrile (58:25:17) as the mobile phase, with a detection wavelength of 290 nm.
# [3] = Saturation solubility of Aildenafil salts in water at room temperature; assay type: physicochemical
# [4] = system: ischemic stroke model rats; experiment: Neurological function (behavioral) score, ischemic stroke model rats, intravenous administration (Example 22); assay type: in vivo, SD rats; set-up: scale not given here; details: 10 mg/kg iv qd 7 d, x ± s, n = 10
# Excerpt: (§1) On the day of the experiment, the rat was anesthetized with isoflurane gas and placed in a supine position for fixation. The skin was cut along the midline of the neck to expose the right common carotid artery. The nerves and fascia around the blood vessels from the common carotid artery bifurcation to the base of the skull were carefully removed, and the external and internal carotid arteries were separated sequentially. The MCAO suture was inserted from the free end of the external carotid artery, and the nylon suture was introduced into the internal carotid artery from the distal end of the external carotid artery. It was inserted into the Willis ring of the middle cerebral artery to effectively block the middle cerebral artery. The length of the inserted suture was 18-20 mm away from the bifurcation of the common carotid artery. Then the free end of the external carotid artery was ligated along with the endovascular suture to prevent bleeding. […] Animals were kept in cages. After 2 hours of embolization, then reperfusion, according to the scoring criteria in the attached table, the degree of neurological damage in the animals was scored using a blind method. Those with significant neurological deficits (>8 points) were considered successful in modeling. • ? Grouping and administration The animals successfully modeled were randomly divided into three groups based on their scores, namely the model control group, compound 1 AD group ([…] citrate group) 10 mg/kg, and compound 2 XD group (Sildenafil citrate group) 10 mg/kg, with 10 animals in each group. […] The endpoint of the experiment was 14 days after administration, and the dosage is detailed in the table below. This experiment was administered intravenously with a dosage of 10 mg/kg and a volume of 5 mL/kg, once per day for consecutive 7 days. Score before treatment, 3 days after treatment, 7 days after treatment, and 14 days after treatment.
# [5] = system: ischemic stroke model rats; experiment: Cerebral infarction range (TTC), ischemic stroke model rats, intravenous administration (Example 22); assay type: in vivo, SD rats; details: 10 mg/kg iv qd 7 d
# Excerpt: as §1, with “cages.” for “cages. After 2 hours of embolization, then reperfusion, according to the scoring criteria in the attached table, the degree of neurological damage in the animals was scored using a blind method. Those with significant neurological deficits (>8 points) were considered successful in modeling. • ? Grouping and administration”, “At the end of the experiment, the brain tissue of the rats was collected by bloodletting” for “Score before treatment, 3 days after treatment, 7 days after treatment,”, “frozen in a -20° C. freezer, then are sliced with a thickness of 2 mm per slice. The brain tissue slices were placed in a 2% red tetrazolium (TTC) solution and incubated at 37° C. for 5 minutes. The infarcted tissue appeared white, while the non-infarcted tissue appeared red.” for “14 days after treatment.”
# [6] = system: MCAO rats; experiment: Balance beam test in MCAO rats, injection of Aildenafil phosphate (Example 24); assay type: in vivo; details: x ± sD, n = 7
# Method: (§2) • ? Animal selection: healthy SD rats were used as experimental animals. In order to eliminate the impact of individual animal variations on the results, 10 rats were used in each group. […] After 2 hours of cerebral ischemia-reperfusion, the drug was immediately injected into the tail vein for consecutive 7 days.
# (§3) On the day of the experiment, the rat was anesthetized with isoflurane gas and fixed in a supine position. The skin was cut along the midline of the neck to expose the right arteriae carotis communis. The nerves and fascia around the blood vessels from the common carotid artery bifurcation to the base of the skull were carefully removed, and the external and internal carotid arteries were separated sequentially. A MCAO suture (250-280 g) was inserted from the free end of the external carotid artery, and the nylon suture was introduced into the internal carotid artery from the distal end of the external carotid artery. It was inserted into the middle cerebral artery in the Willis ring to effectively block the middle cerebral artery. The length of the inserted suture was 18-20 mm away from the bifurcation of the common carotid artery. Then the free end of the external carotid artery was ligated along with intracavity suture to prevent bleeding. The subcutaneous fascia and skin were sutured layer by layer, and penicillin was locally added dropwise to prevent infection. The Sham group only isolated the internal carotid artery. 2 hours after the start of MCAO, the suture was carefully removed from the lumen of the internal carotid artery to allow for reperfusion of the internal carotid artery. Animals were kept in cages. • ? Y Grouping and administration
# (§4) The rats successfully modeled with a neurological function score of 8-12 were randomly divided into four groups based on the score: model control group, low-dose 2.5 mg/kg group of test drug, medium dose 5 mg/kg group of test drug, and high-dose 10 mg/kg group of test drug, with 7 rats in each group. […] Immediately after cerebral ischemia-reperfusion for 2 hours, the drug was administered via tail vein injection for consecutive 7 days. The endpoint of the experiment is 14 days after the first administration. Please see Table 7 for details.
# (§5) Balance beam and forelimb placement tests were performed after 7 and 14 days administration, respectively.
# [7] = system: MCAO rats; experiment: Cerebral infarction range (TTC) in MCAO rats, injection of Aildenafil phosphate (Example 24); assay type: in vivo, SD rats; details: 14 days; for Improvement rate % of cerebral infarction range: versus model control group; for Infarct size (%): x ± sD, n = 7
# Method: as §2, §3, §4
# After 14 days of medication, rats were anesthetized with isoflurane gas to collect blood and euthanized by cervical vertebrae dislocation. The brain tissue was taken and placed in a −20° C. freezer for freezing, and was sliced from front to back, each slice has a thickness of 2 mm. Brain tissue slices were incubated in a 2% red tetrazolium (TTC) solution at 37° C. for 5 minutes. […] Image J software was used to measure the area of cerebral infarction and the percentage of infarct area to the total brain area was calculated.
# [8] = system: MCAO rats; experiment: Forelimb placement test in MCAO rats, injection of Aildenafil phosphate (Example 24); assay type: in vivo; details: x ± sD, n = 7
# Method: as §2, §3, §4, §5
# [9] = system: MCAO rats; experiment: Cerebral infarction range (TTC) in MCAO rats, oral administration (Example 23); assay type: in vivo, SD rats; details: gavage 8 mg/kg*2, after 14 days; for Improvement rate % of cerebral infarction range: versus model control group; for Total cerebral infarction %: x ± s, n = 20
# Method: (§6) Administration route: gavage administration;
# (§7) Dosage: 8 mg/kg body weight, twice a day;
# (§8) Administration time: gavage administration twice a day in the morning and evening (administered immediately after modeling).
# (§9) A rat model of middle cerebral artery ischemia/reperfusion (MCAO/R) was created using suture-occluded method.
# (§10) The successfully modeled rats were randomly divided into 4 groups based on their scores, with an average of 20 rats in each group.
# At the end of the experiment, the brain tissue of the rats was collected by bloodletting and frozen in a −20° C. freezer, and then is sliced into a thickness of 2 mm per slice. The brain tissue slices were placed in a 2% red tetrazolium (TTC) solution and incubated at 37° C. for 5 minutes. The infarcted tissue appeared white, while the non-infarcted tissue appeared red. Image J software was used to measure the area of cerebral infarction and the percentage of infarct area to the total brain area was calculated.
# [10] = Physical and chemical properties of the experimental drugs (Example 23)
# [11] = system: MCAO rats; experiment: Neurological function (behavioral) score in MCAO rats, oral administration (Example 23); assay type: in vivo, SD rats; details: gavage 8 mg/kg twice a day; after 3, 7 and 14 days administration
# Method: as §6, §7, §8, §9
# After 2 hours of embolization, then reperfusion, according to the scoring criteria in the attached table, the degree of neurological damage in the animals was scored using a blind method. Those with significant neurological deficits (>8 points) were considered successful in modeling.
# as §10
# Neurological function score: evaluation was conducted before treatment, 3 days, 7 days, and 14 days after treatment.
# [12] = 5 mg/kg iv qd 7 d (medium dose)
molecule,measurement,setting,value
CCCc1nn(C)c2c(=O)[nH]c(-c3cc(S(=O)(=O)N4C[C@@H](C)N[C@@H](C)C4)ccc3OCC)nc12 [Aildenafil D-tartrate],2 mg/ml pH value,[1]; listed as D-tartrate,3.84
same,10 mg/ml pH value,[1]; listed as D-tartrate,3.58
CCCc1nn(C)c2c(=O)[nH]c(-c3cc(S(=O)(=O)N4C[C@@H](C)N[C@@H](C)C4)ccc3OCC)nc12 [Aildenafil DL-tartrate],2 mg/ml pH value,[1],3.90
same,10 mg/ml pH value,[1],3.57
"CCCc1nn(C)c2c(=O)[nH]c(-c3cc(S(=O)(=O)N4C[C@@H](C)N[C@@H](C)C4)ccc3OCC)nc12.O=C(O)C(O)C(O)C(=O)O [Aildenafil L-tartrate, L-tartrate (1:1) of 1-[4-ethoxy-3-[5-(6,7-dihydro-1-methyl-7-oxy-3-n-propyl-1H-pyrazolo[4,3-d]pyrimidine)]benzenesulfonyl]-cis-3,5-dimethylpiperazine]",Relevant substances before sterilization,[2],None
same,Conclusion (sterilization stability),[2],"No changes, stable"
same,Relevant substances after sterilization,[2],no impurities were found and None
same,Relevant substances after sterilization,[2]; listed as L-tartrate,no impurities are produced
same,time to dissolve to be clear in water by hand shaking,[3],15 s
same,solubility,"[3]; thermodynamic from solid, room temperature, read-out: Saturated Solubility in water at room temperature",~50 mg/mL
same,2 mg/ml pH value,[1],3.59
same,10 mg/ml pH value,[1],3.56
CCCc1nn(C)c2c(=O)[nH]c(-c3cc(S(=O)(=O)N4C[C@@H](C)N[C@@H](C)C4)ccc3OCC)nc12 [Aildenafil citrate],Relevant substances before sterilization,[2],None
same,Conclusion (sterilization stability),[2],"No changes, stable"
same,Relevant substances after sterilization,[2],no impurities were found and None
same,"behavioral score, 3 days after medication",[4]; 3 days after medication,6.9 ± 1.5
same,"behavioral score, 7 days after medication",[4]; 7 days after medication,5.5 ± 1.1
same,"behavioral score, 14 days after medication",[4]; 14 days after medication,4.3 ± 1.3
same,"behavioral score, Before medication",[4]; before medication,9.7 ± 0.5
same,2 mg/ml pH value,[1],4.11
same,10 mg/ml pH value,[1],Insoluble
same,Total cerebral infarction %,"[5]; 14 days after administration, x ± s, n = 10",17.6 ± 7.7 %
same,Improvement rate % of cerebral infarction range,"[5]; 14 days, versus model control group",29.6%
CCCc1nn(C)c2c(=O)[nH]c(-c3cc(S(=O)(=O)N4C[C@@H](C)N[C@@H](C)C4)ccc3OCC)nc12 [Aildenafil phosphate],"balance beam, 7 days after medication",[6]; [12],2.14 ± 0.9 min
same,"balance beam, 14 days after medication",[6]; [12],4.29 ± 1.38 min
same,"balance beam, 7 days after medication",[6]; 10 mg/kg iv qd 7 d (high dose),2.71 ± 1.25 min
same,"balance beam, 14 days after medication",[6]; 10 mg/kg iv qd 7 d (high dose),4.29 ± 1.60 min
same,Relevant substances before sterilization,[2],None
same,Conclusion (sterilization stability),[2],"No changes, stable"
same,Relevant substances after sterilization,[2],no impurities were found and no impurities are produced and None
same,Improvement rate % of cerebral infarction range,[7]; 5 mg/kg iv qd 7 d,46.5%
same,Infarct size (%),[7]; 5 mg/kg iv qd 7 d,13.13 ± 4.12 %
same,Improvement rate % of cerebral infarction range,[7]; 10 mg/kg iv qd 7 d,43.4%
same,Infarct size (%),[7]; 10 mg/kg iv qd 7 d,13.90 ± 4.70 %
same,time to dissolve to be clear in water by hand shaking,[3],15 s
same,"Forelimb left (%), 7 days after medication",[8]; 5 mg/kg iv qd 7 d,18.57 ± 18.64%
same,"Forelimb left (%), 14 days after medication",[8]; 5 mg/kg iv qd 7 d,37.14 ± 30.39 %
same,"Forelimb right (%), 7 days after medication",[8]; 5 mg/kg iv qd 7 d,100 ± 0%
same,"Forelimb right (%), 14 days after medication",[8]; 5 mg/kg iv qd 7 d,100 ± 0%
same,"Forelimb left (%), 7 days after medication",[8]; 10 mg/kg iv qd 7 d,14.29 ± 18.13%
same,"Forelimb left (%), 14 days after medication",[8]; 10 mg/kg iv qd 7 d,38.57 ± 28.54 %
same,"Forelimb right (%), 7 days after medication",[8]; 10 mg/kg iv qd 7 d,100 ± 0%
same,"Forelimb right (%), 14 days after medication",[8]; 10 mg/kg iv qd 7 d,100 ± 0%
same,2 mg/ml pH value,[1],5.47
same,10 mg/ml pH value,[1],5.38
CN1CC(=O)N2[C@H](c3ccc4c(c3)OCO4)c3[nH]c4ccccc4c3C[C@@H]2C1=O [Tadalafil],Improvement rate % of cerebral infarction range,[9],14.2%
same,Total cerebral infarction %,[9],21.3 ± 6.5%
Yukinafil citrate,solubility in DMF or DMSO (in words),[10]; DMF or DMSO,soluble
same,solubility in water (in words),[10]; water,soluble
same,Improvement rate % of cerebral infarction range,[9],13.1%
same,Total cerebral infarction %,[9],21.2 ± 6.3%
same,behavioral scores compared with the model control group,[11],trend of improvement
